Source: patent US20200237703A1, “OLEACEIN FOR USE IN ATHEROSCLEROSIS PREVENTION” (WARSZAWSKI UNIWERSYTET MEDYCZNY, priority 2017, published 2020)

How the values were obtained:
macrophage foam cells = test: Formation of foam cells / lipid deposits in macrophages, Red Oil O staining; format: cell-based, human; details: oleacein 50 μmol/L + oxLDL 50 μg/mL
Experimental: (§1) All experiments were conducted with the use of macrophage cells isolated from human peripheral blood. […] Expression of scavenger receptors was determined using flow cytometer. Visualization of lipid deposits in macrophages (foam cells) was carried out with the use of well-known Red Oil O staining method.
The images were acquired using fluorescence microscope Nikon TS100F. D—control, the cells without stimulation, E—the cells incubated with oleacein (50 μmol/L), F—the cells stimulated with oxLDL (50 μg/mI)—stimulated control, G—the cells incubated with oleacein (50 μmol/L) and oxLDL (50 μg/mL).

[1] = test system: macrophage cells isolated from human peripheral blood; test: Cytotoxicity on macrophage cells; format: cell-based; details: oleacein 20 μmol/L and 50 μmol/L, 72 hours
Experimental: as §1

## C/C=C(/C=O)[C@@H](CC=O)CC(=O)OCCc1ccc(O)c(O)c1 [oleacein]
Macrophage foam cells
  effect on the formation of foam cells and lipid deposits: inhibitory effect
[1]
  cytotoxicity on macrophage cells: no cytotoxicity
